Several values for one entry are separate records, joined by “and”; a condition that tells them apart may be missing. Equal entries are not always repeated. Where two headings read alike, the source gives them in different places. One block for each compound: values may come before it.
Legend:
[1] = system: PANC-1 cells; assay: CellTiter-Glo luminescent cell viability assay, PANC-1; conditions: for Cell Viability (% of Control) 2.8 µM / Cell Viability (% of Control) 8.3 µM / Cell Viability (% of Control) 25 µM: PANC-1; for Cell Viability (% of Control) 2.8 µM / Cell Viability (% of Control) 8.3 µM / Cell Viability (% of Control) 25 µM / viability at 2.8 µM / viability at 8.3 µM / viability at 25 µM: mean ± SD, n = 2; for viability at 2.8 µM: read-out: Cell Viability (% of Control) 2.8 µM, PANC-1; for viability at 8.3 µM: read-out: Cell Viability (% of Control) 8.3 µM, PANC-1; for viability at 25 µM: read-out: Cell Viability (% of Control) 25 µM, PANC-1
Protocol: Primary fibroblast cultures were prepared from human skin biopsies and maintained in DMEM supplemented with 10% FBS, 1% penicillin-streptomycin, and 1% MEM Non-Essential Amino Acids Solution (Thermo Fisher Scientific). […] All cell lines were cultured in a humidified atmosphere at 37 °C and 5% CO2, passaged twice a week, and the experiments were performed on cells between passage 5 and 15. The cell lines were routinely screened for the absence of mycoplasma infection (DAPI staining).
The effects of the synthesized compounds on cell viability were measured using the CellTiter-Glo® luminescent cell viability assay (Promega, Madison, WI, USA), according to the manufacturer’s instructions. Briefly, cells were seeded onto a flat-bottomed, white 96-well plate (BRANDplates, cat. no.: 781965)), with the following densities: PANC-1: 750 cells/well, Fadu: 2000 cells/well, primary fibroblasts: 2000 cells/well, HEK293T WT: 1000 cells/well, HEK293T CLPP^−/−: 2500 cells/well. After seeding, cells were incubated for a further 48 h before treatment. Cells were treated with the compounds for 72 h. Three concentrations (25.0 µM; 8.3 µM; 2.8 µM) were applied during the initial cell viability screening, while for the determination of dose–response curves, 1.5-fold serially diluted compound concentrations were applied (range: 26 µM–0.7 µM). After treatment, the luminescence signal was recorded using a microplate reader (BioTek Synergy 2 Multi-Mode Reader, BioTek, Winooski, VT, USA).
Data analysis was performed using GraphPad Prism 9.5.0 software (GraphPad Software, San Diego, CA, USA). […] The dose–response curves were generated by four-parameter nonlinear regression, and the IC50 values were determined as the means ± SEM of the best-fit values of 3 independent measurements. The R^2 values were consistently above 0.93, indicating a strong fit of the model to the experimental data (Supplementary S.89). […] Dunnett’s post hoc test was applied to adjust for multiple comparisons, minimizing the likelihood of false positive results. Assumptions for ANOVA, including normality (assessed via QQ plots) and homogeneity of variance (tested using the Brown–Forsythe test), were verified. The following significance levels were applied: * p < 0.05, ** p < 0.01, *** p < 0.001, **** p < 0.0001. […] The tumor selectivity of the compounds was quantitatively characterized by the selectivity index (SI). This parameter was calculated as the ratio of the average best-fit IC50 value for primary fibroblasts and the best-fit IC50 value for the corresponding tumor cells (PANC-1 or Fadu).

[2] = system: Fadu cells; assay: CellTiter-Glo luminescent cell viability assay, Fadu; conditions: for Cell Viability (% of Control) 2.8 µM / Cell Viability (% of Control) 8.3 µM / Cell Viability (% of Control) 25 µM: Fadu; for Cell Viability (% of Control) 2.8 µM / Cell Viability (% of Control) 8.3 µM / Cell Viability (% of Control) 25 µM / viability at 2.8 µM / viability at 8.3 µM / viability at 25 µM: mean ± SD, n = 2; for viability at 2.8 µM: read-out: Cell Viability (% of Control) 2.8 µM, Fadu; for viability at 8.3 µM: read-out: Cell Viability (% of Control) 8.3 µM, Fadu; for viability at 25 µM: read-out: Cell Viability (% of Control) 25 µM, Fadu
[3] = system: PANC-1 and Fadu cells; assay: CellTiter-Glo viability, statements covering both cancer cell lines; type: cell-based, human; conditions: for eradication of cancer cells at 8.3 µM: both PANC-1 and Fadu, first-set screening
Protocol: The effects of the synthesized compounds on cell viability were measured using the CellTiter-Glo® luminescent cell viability assay (Promega, Madison, WI, USA), according to the manufacturer’s instructions. […] After seeding, cells were incubated for a further 48 h before treatment. Cells were treated with the compounds for 72 h. […] After treatment, the luminescence signal was recorded using a microplate reader (BioTek Synergy 2 Multi-Mode Reader, BioTek, Winooski, VT, USA).

[4] = CellTiter-Glo luminescent cell viability assay, primary fibroblasts; conditions: human, primary skin fibroblasts (non-tumorous), Primer fibroblast Cell viability (% of controll), 72 h, dose–response, individual replicates
[5] = system: non-tumorous primary fibroblast cells; assay: as above; conditions: 72 h; for Primer fibroblast Cell viability (% of controll): dose–response, individual replicates
[6] = Homo sapiens, PANC-1, 72 h, 72 h, first-set screening
[7] = Homo sapiens, PANC-1, 72 h, 72 h, second-set screening
[8] = Homo sapiens, FaDu, 72 h, 72 h, first-set screening
[9] = Homo sapiens, FaDu, 72 h, 72 h, second-set screening
[10] = 0.7 μM, 72 h, dose–response, individual replicates
[11] = 1 μM, 72 h, dose–response, individual replicates
[12] = 2.3 μM, 72 h, dose–response, individual replicates
[13] = 3.4 μM, 72 h, dose–response, individual replicates
[14] = 5.1 μM, 72 h, dose–response, individual replicates
[15] = 7.7 μM, 72 h, dose–response, individual replicates
[16] = 17.3 μM, 72 h, dose–response, individual replicates
[17] = 26 μM, 72 h, dose–response, individual replicates

SMILES: NCC#Cc1cccc(CN2C(=O)C3=C(CCN(Cc4ccc(-n5cc(-[c-]6cccc6)nn5)cc4)C3)N3CCN=C23)c1.[Fe+2].c1cc[cH-]c1 [2a]
- Cell Viability (% of Control) 2.8 µM ([1]; 72 h, first-set screening): 92 ± 2 % of Control
- Cell Viability (% of Control) 2.8 µM ([1]; 72 h, second-set screening): 117 ± 4 % of Control
- Cell Viability (% of Control) 8.3 µM ([1]; 72 h, first-set screening): 0 ± 0 % of Control
- Cell Viability (% of Control) 8.3 µM ([1]; 72 h, second-set screening): 92 ± 14 % of Control
- Cell Viability (% of Control) 25 µM ([1]; 72 h, first-set screening): 0 ± 0 % of Control
- Cell Viability (% of Control) 25 µM ([1]; 72 h, second-set screening): 0 ± 0 % of Control
- Cell Viability (% of Control) 2.8 µM ([2]; 72 h, first-set screening): 107 ± 5 % of Control
- Cell Viability (% of Control) 2.8 µM ([2]; 72 h, second-set screening): 114 ± 8 % of Control
- Cell Viability (% of Control) 8.3 µM ([2]; 72 h, first-set screening): 3 ± 0 % of Control
- Cell Viability (% of Control) 8.3 µM ([2]; 72 h, second-set screening): 56 ± 9 % of Control
- Cell Viability (% of Control) 25 µM ([2]; 72 h, first-set screening): 0 ± 0 % of Control
- Cell Viability (% of Control) 25 µM ([2]; 72 h, second-set screening): 0 ± 0 % of Control
- eradication of cancer cells at 8.3 µM [3]: practically complete eradication of both types of cancer cells

SMILES: NCC#Cc1cccc(CN2C(=O)C3=C(CCN(Cc4ccc(-n5cc(-c6ccccc6)nn5)cc4)C3)N3CCN=C23)c1 [2b]
- viability at 2.8 µM [1, 6]: 107 ± 1%
- viability at 2.8 µM [1, 7]: 113 ± 3%
- viability at 8.3 µM [1, 6]: 0%
- viability at 8.3 µM [1, 7]: 0%
- viability at 25 µM [1, 6]: 0%
- viability at 25 µM [1, 7]: 0%
- viability at 2.8 µM [2, 8]: 102 ± 8%
- viability at 2.8 µM [2, 9]: 117 ± 7%
- viability at 8.3 µM [2, 8]: 0%
- viability at 8.3 µM [2, 9]: 27 ± 12%
- viability at 25 µM [2, 8]: 0%
- viability at 25 µM [2, 9]: 0%
- eradication of cancer cells at 8.3 µM [3]: practically complete eradication of both types of cancer cells
- viability at 25 µM ([3]; Homo sapiens, 25 µM, in either of the cancer cell lines, read-out: drop in viability at 25 µM): 0 to 1%

- IC50 ([1]; Homo sapiens, PANC-1, 72 h, read-out: IC50 Value ± SEM PANC-1, 72 h treatment, best-fit values, n = 3): 2.6 ± 0.03 µM
- IC50 ([1]; Homo sapiens, PANC-1, read-out: PANC-1 IC50 values, Mean, mean of independently fitted replicate IC50 values (Supplement S.6)): 2.63 µM
SMILES: CNCC#Cc1cccc(CN2C(=O)C3=C(CCN(Cc4ccc(-n5cc(-c6cc(F)cc(F)c6)nn5)cc4)C3)N3CCN=C23)c1 [43c]
- PANC-1 Cell viability (% of controll) [1, 10]: 110 % of controll and 102 % of controll
- PANC-1 Cell viability (% of controll) [1, 11]: 99 % of controll and 105 % of controll
- PANC-1 Cell viability (% of controll) ([1]; 1.5 μM, 72 h, dose–response, individual replicates): 103 % of controll
- PANC-1 Cell viability (% of controll) [1, 12]: 80 % of controll and 82 % of controll
- PANC-1 Cell viability (% of controll) [1, 13]: 5 % of controll and 8 % of controll
- PANC-1 Cell viability (% of controll) [1, 14]: 0 % of controll
- PANC-1 Cell viability (% of controll) [1, 15]: 0 % of controll
- PANC-1 Cell viability (% of controll) [1, 16]: 0 % of controll
- PANC-1 Cell viability (% of controll) [1, 17]: 0 % of controll
- viability at 0.7 µM ([1]; Homo sapiens, PANC-1, 72 h, read-out: PANC-1 Cell viability (% of controll), 0.7 μM, 72 h, dose–response, individual replicates): 104%
- viability at 1 µM ([1]; Homo sapiens, PANC-1, 72 h, read-out: PANC-1 Cell viability (% of controll), 1 μM, 72 h, dose–response, individual replicates): 104%
- viability at 1.5 µM ([1]; Homo sapiens, PANC-1, 72 h, read-out: PANC-1 Cell viability (% of controll), 1.5 μM, 72 h, dose–response, individual replicates): 100%
- viability at 2.3 µM ([1]; Homo sapiens, PANC-1, 72 h, read-out: PANC-1 Cell viability (% of controll), 2.3 μM, 72 h, dose–response, individual replicates): 89%
- viability at 3.4 µM ([1]; Homo sapiens, PANC-1, 72 h, read-out: PANC-1 Cell viability (% of controll), 3.4 μM, 72 h, dose–response, individual replicates): 6%
- viability at 5.1 µM ([1]; Homo sapiens, PANC-1, 72 h, read-out: PANC-1 Cell viability (% of controll), 5.1 μM, 72 h, dose–response, individual replicates): 0%
- viability at 7.7 µM ([1]; Homo sapiens, PANC-1, 72 h, read-out: PANC-1 Cell viability (% of controll), 7.7 μM, 72 h, dose–response, individual replicates): 0%
- viability at 17.3 µM ([1]; Homo sapiens, PANC-1, 72 h, read-out: PANC-1 Cell viability (% of controll), 17.3 μM, 72 h, dose–response, individual replicates): 0%
- viability at 26 µM ([1]; Homo sapiens, PANC-1, 72 h, read-out: PANC-1 Cell viability (% of controll), 26 μM, 72 h, dose–response, individual replicates): 0%
- Selectivity Index (SI) Fibroblast/PANC-1 ([1]; ratio of mean best-fit IC50 for primary fibroblasts and best-fit IC50 for PANC-1): 1.4
- Fadu Cell viability (% of controll) [2, 10]: 99 % of controll and 100 % of controll
- Fadu Cell viability (% of controll) [2, 11]: 102 % of controll and 93 % of controll
- Fadu Cell viability (% of controll) [2, 12]: 90 % of controll and 79 % of controll
- Fadu Cell viability (% of controll) [2, 13]: 79 % of controll and 59 % of controll and 42 % of controll
- Fadu Cell viability (% of controll) [2, 14]: 0 % of controll
- Fadu Cell viability (% of controll) [2, 15]: 0 % of controll
- Fadu Cell viability (% of controll) [2, 16]: 0 % of controll
- Fadu Cell viability (% of controll) [2, 17]: 0 % of controll
- viability at 0.7 µM ([2]; Homo sapiens, FaDu, 72 h, read-out: Fadu Cell viability (% of controll), 0.7 μM, 72 h, dose–response, individual replicates): 94%
- viability at 1 µM ([2]; Homo sapiens, FaDu, 72 h, read-out: Fadu Cell viability (% of controll), 1 μM, 72 h, dose–response, individual replicates): 97%
- viability at 1.5 µM ([2]; Homo sapiens, FaDu, 72 h, read-out: Fadu Cell viability (% of controll), 1.5 μM, 72 h, dose–response, individual replicates): 90%
- viability at 2.3 µM ([2]; Homo sapiens, FaDu, 72 h, read-out: Fadu Cell viability (% of controll), 2.3 μM, 72 h, dose–response, individual replicates): 89%
- viability at 5.1 µM ([2]; Homo sapiens, FaDu, 72 h, read-out: Fadu Cell viability (% of controll), 5.1 μM, 72 h, dose–response, individual replicates): 0%
- viability at 7.7 µM ([2]; Homo sapiens, FaDu, 72 h, read-out: Fadu Cell viability (% of controll), 7.7 μM, 72 h, dose–response, individual replicates): 0%
- viability at 17.3 µM ([2]; Homo sapiens, FaDu, 72 h, read-out: Fadu Cell viability (% of controll), 17.3 μM, 72 h, dose–response, individual replicates): 0%
- viability at 26 µM ([2]; Homo sapiens, FaDu, 72 h, read-out: Fadu Cell viability (% of controll), 26 μM, 72 h, dose–response, individual replicates): 0%
- IC50 ([2]; Homo sapiens, FaDu, 72 h, read-out: IC50 Value ± SEM Fadu, 72 h treatment, best-fit values, n = 3): 3.6 ± 0.09 µM
- IC50 ([2]; Homo sapiens, FaDu, read-out: Fadu IC50 values, Mean, mean of independently fitted replicate IC50 values (Supplement S.6)): 3.48 µM
- Selectivity Index (SI) Fibroblast/Fadu ([2]; ratio of mean best-fit IC50 for primary fibroblasts and best-fit IC50 for Fadu): 1.0
- viability at 72 h, 0.7 µM ([4]; 0.7 μM): 91%
- viability at 72 h, 1 µM ([4]; 1 μM): 92%
- viability at 72 h, 2.3 µM ([4]; 2.3 μM): 103%
- viability at 72 h, 3.4 µM ([4]; 3.4 μM): 80%
- viability at 72 h, 5.1 µM ([4]; 5.1 μM): 0%
- viability at 72 h, 7.7 µM ([4]; 7.7 μM): 0%
- viability at 72 h, 17.3 µM ([4]; 17.3 μM): 0%
- viability at 72 h, 26 µM ([4]; 26 μM): 0%
- Primer fibroblast Cell viability (% of controll) ([5]; 0.7 μM): 98 % of controll and 102 % of controll
- Primer fibroblast Cell viability (% of controll) ([5]; 1 μM): 104 % of controll and 106 % of controll
- Primer fibroblast Cell viability (% of controll) ([5]; 1.5 μM): 99 % of controll and 95 % of controll and 118 % of controll
- Primer fibroblast Cell viability (% of controll) ([5]; 2.3 μM): 97 % of controll and 98 % of controll
- Primer fibroblast Cell viability (% of controll) ([5]; 3.4 μM): 95 % of controll and 99 % of controll
- Primer fibroblast Cell viability (% of controll) ([5]; 5.1 μM): 0 % of controll
- Primer fibroblast Cell viability (% of controll) ([5]; 7.7 μM): 0 % of controll
- Primer fibroblast Cell viability (% of controll) ([5]; 17.3 μM): 0 % of controll
- Primer fibroblast Cell viability (% of controll) ([5]; 26 μM): 0 % of controll
- IC50 ([5]; Homo sapiens, Fibroblast, read-out: IC50 Value ± SEM Primary Fibroblast, 72 h treatment, best-fit values, n = 3): 3.7 ± 1.73 µM

Source: PMC11642016 (International Journal of Molecular Sciences, 2024)
